The results in this text go back to article PMC4052326, “Alterporriol-Type Dimers from the Mangrove Endophytic Fungus, Alternaria sp. (SK11), and Their MptpB Inhibitions” (Marine Drugs, 2014).

SMILES strings stand for the structures.

The target in this experiment is T1, Mycobacterium tuberculosis protein tyrosine phosphatase B (MptpB) (Mycobacterium tuberculosis, UniProt I6WXK4).
T1 construct: The full-length PTPB gene was amplified from genomic DNA of the Mtb H37Rv strain; His6 (N); made in house
The experiment in a line: biochemical. Particulars: for IC50: MptpB, substrate DiFMUP, average of two independent experiments, sodium orthovanadate as positive control. In kind it is biochemical.

T1 sequence (I6WXK4 whole entry, looked up): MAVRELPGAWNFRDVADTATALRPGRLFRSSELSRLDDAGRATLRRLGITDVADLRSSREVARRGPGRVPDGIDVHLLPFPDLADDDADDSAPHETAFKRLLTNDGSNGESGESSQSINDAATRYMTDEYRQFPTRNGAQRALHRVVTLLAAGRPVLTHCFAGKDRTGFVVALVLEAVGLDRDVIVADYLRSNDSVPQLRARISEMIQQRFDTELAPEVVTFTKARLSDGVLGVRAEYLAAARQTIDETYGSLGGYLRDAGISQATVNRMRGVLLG

For orientation: IC50 means the midpoint of a concentration-inhibition curve. The low end stands for greater potency in that assay, the high end for weaker potency in that assay. The molecule `COc1cc(O)c2c(c1O)C(c1cc(O)c3c(c1O)C(=O)C1=C(CC(O)C(C)(O)C1)C3=O)C1CC(C)(O)C(O)C(O)C1C2=O` (stereo not shown) [Compound 1, alterporriol S] displayed an IC50 of 64.7 µM.
The molecule `COc1cc(O)c2c(c1)C(=O)c1cc(C)c(O)c(-c3c(OC)cc4c(c3O)C(=O)C3=C(C4=O)[C@@H](O)[C@](C)(O)[C@H](O)[C@H]3O)c1C2=O` [Compound 2, (+)-aS-alterporriol C] registered a concentration for half-maximal inhibition (IC50) of 8.7 µM. In addition, under “result in words”, the “inhibitory activity against MptpB” value was “strong inhibitory activity”.
`[Na+].[Na+].[Na+].[O]=[V]([O-])([O-])[O-]` [Control, sodium orthovanadate, reference compound] showed an IC50 of 0.05 µM.
